Here are results for two compounds from paper PMC5845004, “Novel (p)ppGpp Binding and Metabolizing Proteins of Escherichia coli” (mBio, 2018).

One assay deals with TrmE (Escherichia coli, UniProt P25522). Description: DRaCALA Kd determination, purified TrmE. The following applies: in the presence of magnesium, read-out: apparent Kd, TrmE. The class given is binding, E. coli.
The target of a further assay is RsgA. Set-up: method as in Table S1 (4). The note with it: ref Table S1 (4); read-out: Kd, S. aureus RsgA (converted); cited from earlier work.
The target in the next assay is Era (Escherichia coli, UniProt P06616). In words: DRaCALA Kd determination, purified Era. Type of assay: binding, E. coli. The following applies: 2 nM 32P-labeled ligand, read-out: apparent Kd, Era (converted).
Era, sequence (P06616 whole entry): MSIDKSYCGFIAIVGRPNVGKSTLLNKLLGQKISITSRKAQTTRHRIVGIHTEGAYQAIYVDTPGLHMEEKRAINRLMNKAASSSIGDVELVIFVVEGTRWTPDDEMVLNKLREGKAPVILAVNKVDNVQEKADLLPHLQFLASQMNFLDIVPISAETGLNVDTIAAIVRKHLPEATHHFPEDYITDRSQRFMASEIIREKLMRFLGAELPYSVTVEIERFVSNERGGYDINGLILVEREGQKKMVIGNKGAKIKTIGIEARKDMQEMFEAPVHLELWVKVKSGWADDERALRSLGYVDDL
A further assay has as its target Hpt (Escherichia coli, UniProt P0A9M2). Description: DRaCALA Kd determination, purified Hpt. The class given is binding, E. coli. The following applies: 2 nM 32P-labeled ligand, read-out: apparent Kd, Hpt.
A further assay deals with ObgE (Escherichia coli, UniProt P42641). Description: DRaCALA Kd determination, purified ObgE. The class given is binding, E. coli. The following applies: 2 nM 32P-labeled ligand, read-out: apparent Kd, ObgE (converted).
ObgE, sequence (P42641 whole entry): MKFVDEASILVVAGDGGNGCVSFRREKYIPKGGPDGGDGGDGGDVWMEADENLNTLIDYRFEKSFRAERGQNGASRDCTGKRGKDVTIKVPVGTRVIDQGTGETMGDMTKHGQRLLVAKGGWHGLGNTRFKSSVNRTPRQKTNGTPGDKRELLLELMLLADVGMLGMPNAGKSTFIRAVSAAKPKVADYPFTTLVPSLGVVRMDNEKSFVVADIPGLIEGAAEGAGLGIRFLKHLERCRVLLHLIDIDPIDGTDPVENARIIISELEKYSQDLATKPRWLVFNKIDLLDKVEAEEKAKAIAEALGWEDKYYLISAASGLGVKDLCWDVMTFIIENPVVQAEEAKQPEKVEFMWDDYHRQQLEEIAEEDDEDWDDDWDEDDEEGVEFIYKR
In another assay the target is HypB (Escherichia coli, UniProt P0AAN3). Description: DRaCALA Kd determination, purified HypB. The class given is binding, E. coli. The following applies: 2 nM 32P-labeled ligand, read-out: apparent Kd, HypB.
HypB, sequence (P0AAN3 whole entry): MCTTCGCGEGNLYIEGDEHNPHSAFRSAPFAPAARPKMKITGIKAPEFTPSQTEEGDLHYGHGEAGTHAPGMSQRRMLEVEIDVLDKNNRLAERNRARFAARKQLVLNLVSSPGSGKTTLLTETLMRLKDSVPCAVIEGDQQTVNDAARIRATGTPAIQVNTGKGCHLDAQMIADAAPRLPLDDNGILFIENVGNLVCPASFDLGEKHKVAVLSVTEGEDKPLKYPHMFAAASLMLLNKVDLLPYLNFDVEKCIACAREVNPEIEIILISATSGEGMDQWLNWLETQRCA
Another assay deals with T1, UshA (Escherichia coli, UniProt P07024).
T1 sequence (P07024 26-550): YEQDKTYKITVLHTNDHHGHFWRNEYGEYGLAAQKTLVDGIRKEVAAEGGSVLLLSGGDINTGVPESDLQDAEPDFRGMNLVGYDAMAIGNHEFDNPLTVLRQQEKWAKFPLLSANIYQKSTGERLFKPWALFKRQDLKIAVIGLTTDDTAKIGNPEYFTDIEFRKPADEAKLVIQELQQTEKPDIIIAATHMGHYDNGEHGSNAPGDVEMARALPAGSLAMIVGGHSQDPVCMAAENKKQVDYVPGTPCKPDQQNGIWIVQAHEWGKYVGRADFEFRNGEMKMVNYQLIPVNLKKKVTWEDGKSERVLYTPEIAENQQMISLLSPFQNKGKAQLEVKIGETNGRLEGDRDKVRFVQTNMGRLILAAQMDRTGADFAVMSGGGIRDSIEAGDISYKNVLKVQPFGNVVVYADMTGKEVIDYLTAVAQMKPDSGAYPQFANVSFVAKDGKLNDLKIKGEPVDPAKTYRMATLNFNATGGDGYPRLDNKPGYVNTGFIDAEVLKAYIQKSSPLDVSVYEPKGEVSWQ
Description: DRaCALA competition assay, lysate with overexpressed UshA. The class given is binding. The note with it: cell lysate, 2 nM hot (p)ppGpp, 100 µM cold competitor. Here is the method:
Bacterial cells were collected and frozen at −80°C.

In assay [1] the target is DerG1 (residues 2 to 184) (Escherichia coli, UniProt P0A6P5). Description: DRaCALA Kd determination, Der G1 domain. The class given is binding, E. coli. The following applies: 2 nM 32P-labeled ligand, read-out: apparent Kd, DerG1.
DerG1 (residues 2 to 184), sequence (P0A6P5 2-184): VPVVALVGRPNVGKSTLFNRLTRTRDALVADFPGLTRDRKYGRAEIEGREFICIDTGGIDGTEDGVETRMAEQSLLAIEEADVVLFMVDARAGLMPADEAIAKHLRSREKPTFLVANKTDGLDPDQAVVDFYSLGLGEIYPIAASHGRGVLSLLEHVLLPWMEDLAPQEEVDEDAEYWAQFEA
Description: (§1) For Kd measurements by DRaCALA, 2-fold serial dilutions from the highest possible concentrations of each purified protein were prepared in binding buffer B, and approximately 2 nM concentrations of α-^32P-labeled ppGpp, pppGpp, GTP, and GDP were added. The mixtures were incubated for 5 min at RT before spotting of 2 µl of the reaction mixtures onto nitrocellulose membranes. The fractions of bound ligand and the apparent Kd values were calculated as previously described ([37]). For competition assays, purified proteins at the specified concentrations were incubated with 2 nM [α-^32P]ppGpp or [α-^32P]pppGpp in the presence of 100 μM competitor nucleotides in binding buffer B. The reaction mixtures were incubated for 5 min at RT, 2 µl was spotted onto nitrocellulose membranes, and the values corresponding to the bound fractions were determined. EDTA was added at excess concentrations as specified for each case.
The next assay deals with HprT. Set-up: method as in ref 39 (Table S1 ref 4). The note with it: ref 39 (Table S1 ref 4); read-out: Kd, S. aureus HprT; cited from earlier work.
Another assay concerns the target MutT (Escherichia coli, UniProt P08337). Description: In vitro cleavage assay (TLC), MutT. Type of assay: biochemical, E. coli. The following applies: for cleavage by MutT: purified MutT, buffer B with 10 mM MgCl2, TLC. On the procedure: The purified His6-MutT and His6-NudG proteins were tested for their relative levels of cleavage of ppGpp compared to those seen with their native substrates. For this, a 1 μM concentration of each protein and a 10 nM concentration of [α-^32P]ppGpp were used together with 100 μM concentrations of cold competitors [ppGpp, GTP, ATP, 8-oxo-(d)GTP, 2-hydroxyl-(d)ATP] or 50 mM EDTA in buffer B. The samples were incubated at 30°C for 10 min and for 1 h before the reactions were stopped by adding 50 mM EDTA. The cleavage products were resolved by TLC as described above. The purified His6-NadR and His6-TrmE proteins were tested for their cleavage of both GTP and ppGpp. For cleavage of GTP, 10 μM concentrations of His6-MBP, His6-TrmE, and 20 μM His6-NadR proteins were used with 2 nM [α-^32P]GTP and 100 μM cold GTP in buffer B. For cleavage of ppGpp, 10 μM concentrations of His6-TrmE, His6-MBP, and His6-NadR proteins were used with 10 nM [α-^32P]ppGpp in buffer B. Of note, for His6-TrmE, another reaction was also performed in buffer B supplemented with 100 mM KCl. The reactions were performed at RT for 10 min and were stopped by adding 17% formic acid. The cleavage products were resolved by TLC as described above.
A 20 μM concentration of each of purified proteins MutT, NudG, NadR, TrmE, and MBP (as a negative control) was incubated with 100 μM ppGpp in buffer B (containing 40 mM Tris [pH 7.5], 100 mM NaCl, and 10 mM MgCl2) for 20 min at room temperature. Samples were snap-frozen on dry ice and analyzed with UPLC-MS afterward. All samples and buffers were stored at −80°C, thawed on ice, and kept at 4°C during analysis. For the analysis, a UPLC-quadrupole time of flight (UPLC-qTOF) method (Waters) was used. Analysis conditions were as follows: column, zic-HILIC (Merck Millipore) (150 by 2.1 mm, […], gradient elution, flow rate set to 0.3 ml/min); mobile phase A, 10 mM ammonium acetate (pH 5); mobile phase B, 90% acetonitrile with 10 mM ammonium acetate (pH 5). The gradient was set up as follows: min 0 to 2, 80% B; min 2 to 16, 80% B to 50% B; hold until min 20; injection volume, 4 µl. The detection conditions were as follows: photodiode array detector (PDA), […] (evaluated at 260 nm); MS, ionization; electrospray ionization (ESI+), scan, 200 to 800 m/z with lock mass correction. Analytes were identified by their accurate mass and retention time data for a known standard dissolved in used buffer (for the chemicals of the same nominal masses). These standards were either synthesized and their structures confirmed by nuclear magnetic resonance (NMR) (for ppGp, pGpp, and pGp) or purchased (ppGpp was purchased from Jena Biocsience and GTP from Sigma-Aldrich).

For a further assay, the target named is Gpt (Escherichia coli, UniProt P0A9M5). In words: DRaCALA Kd determination, purified Gpt. The class given is binding, E. coli. The note with it: 2 nM 32P-labeled ligand, read-out: apparent Kd, Gpt.
Gpt, sequence (P0A9M5 whole entry): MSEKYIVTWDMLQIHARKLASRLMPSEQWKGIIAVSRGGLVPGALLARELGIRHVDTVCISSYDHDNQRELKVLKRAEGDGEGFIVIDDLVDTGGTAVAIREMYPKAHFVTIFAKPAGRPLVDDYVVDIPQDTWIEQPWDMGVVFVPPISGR
For a further assay, the target named is Gmk. Set-up: method as in Table S1 (4). The note with it: ref Table S1 (4); read-out: Kd, S. aureus Gmk; cited from earlier work.

Entries after “also recorded” stand apart in the source; their conditions may differ.

MutT, sequence (P08337 whole entry): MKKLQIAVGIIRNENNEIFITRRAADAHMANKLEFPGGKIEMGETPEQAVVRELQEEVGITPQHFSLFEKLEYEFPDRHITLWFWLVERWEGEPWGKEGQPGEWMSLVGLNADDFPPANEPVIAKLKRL
Hpt, sequence (P0A9M2 whole entry): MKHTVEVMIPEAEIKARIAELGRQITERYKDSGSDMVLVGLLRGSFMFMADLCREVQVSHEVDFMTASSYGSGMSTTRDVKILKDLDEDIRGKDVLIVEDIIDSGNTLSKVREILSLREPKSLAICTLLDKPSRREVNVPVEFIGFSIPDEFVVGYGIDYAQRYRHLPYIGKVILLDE
TrmE, sequence (P25522 whole entry): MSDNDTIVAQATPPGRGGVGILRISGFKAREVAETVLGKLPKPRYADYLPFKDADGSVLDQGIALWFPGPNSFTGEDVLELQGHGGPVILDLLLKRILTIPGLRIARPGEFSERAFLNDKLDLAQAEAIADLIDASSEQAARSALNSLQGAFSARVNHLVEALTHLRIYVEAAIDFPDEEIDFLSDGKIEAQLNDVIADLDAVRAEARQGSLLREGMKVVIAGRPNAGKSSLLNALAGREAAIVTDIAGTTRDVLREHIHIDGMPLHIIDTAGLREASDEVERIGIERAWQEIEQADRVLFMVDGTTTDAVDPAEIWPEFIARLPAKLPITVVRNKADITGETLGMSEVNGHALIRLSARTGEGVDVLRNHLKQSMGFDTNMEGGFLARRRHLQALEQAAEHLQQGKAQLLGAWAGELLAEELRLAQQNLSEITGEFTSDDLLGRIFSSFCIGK
Description for Era: (§2) For Kd measurements by DRaCALA, 2-fold serial dilutions from the highest possible concentrations of each purified protein were prepared in binding buffer B, and approximately 2 nM concentrations of α-^32P-labeled ppGpp, pppGpp, GTP, and GDP were added. The mixtures were incubated for 5 min at RT before spotting of 2 µl of the reaction mixtures onto nitrocellulose membranes. The fractions of bound ligand and the apparent Kd values were calculated as previously described ([37]).
Description for Gpt: as §2
Description for Hpt: as §1
Description for HypB: (§3) For Kd measurements by DRaCALA, 2-fold serial dilutions from the highest possible concentrations of each purified protein were prepared in binding buffer B, and approximately 2 nM concentrations of α-^32P-labeled ppGpp, pppGpp, GTP, and GDP were added. The mixtures were incubated for 5 min at RT before spotting of 2 µl of the reaction mixtures onto nitrocellulose membranes. […] For competition assays, purified proteins at the specified concentrations were incubated with 2 nM [α-^32P]ppGpp or [α-^32P]pppGpp in the presence of 100 μM competitor nucleotides in binding buffer B. The reaction mixtures were incubated for 5 min at RT, 2 µl was spotted onto nitrocellulose membranes, and the values corresponding to the bound fractions were determined. EDTA was added at excess concentrations as specified for each case.
Description for ObgE: as §2
Description for TrmE: as §3

Consider `Nc1nc2c(ncn2[C@@H]2O[C@H](COP(=O)(O)OP(=O)(O)O)[C@@H](OP(=O)(O)OP(=O)(O)O)[C@H]2O)c(=O)[nH]1` [ppGpp, guanosine tetraphosphate], for which the Kd on TrmE was 1.7 ± 0.5 µM; on RsgA, 1.69 ± 0.13 µM; on Era, 4.3 ± 0.6 µM; on Hpt it was 6.1 ± 0.9 µM; at ObgE, 1.8 ± 0.3 µM; on HypB it was 12.4 ± 3 µM. In addition, the Kd was 5.9 ± 2.5 µM in [1], 0.37 µM at HprT, 5.2 ± 0.9 µM at Gpt and 6.02 µM at Gmk. Further, the “competition for UshA-bound (p)ppGpp” value at UshA is listed as “could outcompete the bound, radiolabeled (p)ppGpp”. The “inhibition of [α-32P]ppGpp cleavage by MutT” value on MutT (1 µM MutT, 10 nM hot ppGpp, 100 µM competitor, 30°C, up to 1 h) is listed as “very limited inhibitory effects”. For the same compound, the “cleavage by MutT” value on MutT was “degraded into smaller products; also recorded: cleaved most ppGpp”.

For `Nc1nc2c(ncn2[C@@H]2O[C@H](COP(=O)(O)OP(=O)(O)OP(=O)(O)O)[C@@H](OP(=O)(O)OP(=O)(O)O)[C@H]2O)c(=O)[nH]1` [pppGpp, guanosine pentaphosphate], the Kd was 2.2 ± 0.9 µM at TrmE; 10.3 µM at RsgA; 21.4 µM at Era; 6.2 ± 0.8 µM at Hpt; 6.6 µM at ObgE; 14.8 ± 5.1 µM at HypB. Also, the Kd in assay [1] was 4.7 ± 2.3 µM; on HprT it was 0.75 µM; on Gpt, 6.7 ± 0.9 µM; at Gmk, 4.01 µM. The “competition for UshA-bound (p)ppGpp” value at UshA is reported as “could outcompete the bound, radiolabeled (p)ppGpp”. Further, on MutT, the “cleavage by MutT” value is “degraded into smaller products”.
